Measurements from patent US20100168136A1, “ALKYLSULFONE DERIVATIVES” (DAIICHI SANKYO COMPANY, LIMITED, priority 2007, published 2010).

What was measured:
[1] = test system: production of β-amyloid protein (Aβ) by E35 cells (human glioma H4 cells transfected with APP751 gene); assay: Screening system using cells: inhibition of production/secretion of β-amyloid protein (Aβ sandwich ELISA of culture supernatant); type: cell-based; conditions: 24 hours with compound, Aβ in supernatant by ELISA, read-out: Activity (EC50, concentration at which production of Aβ is inhibited by 50%)
Procedure: Inhibitory activity of compounds against production of β-amyloid protein was measured by quantitative determination of the amount of β-amyloid protein (Aβ) secreted into the culture medium by sandwich enzyme-linked immunosorbent assay (ELISA) method, using E35 cells prepared by transfecting APP751 gene, which is a human wild type β-amyloid protein precursor protein gene, into human glioma cells (H4 cells).
That is, E35 cells were inoculated into a 96-well plate followed by cultivation in an incubator equilibrated with 5% carbon dioxide at 37° C., using Dulbecco's Modified Eagle's Medium supplemented with inactivated 10% fetal bovine serum as the medium. Test compounds dissolved in DMSO solution were added 24 hours after inoculation. Test compounds in DMSO solution were prepared to have a 2000-fold concentration of the final concentration, so that the DMSO concentration in the medium becomes 0.05%. After further cultivation for 24 hours, supernatant was collected, and was added to a 96-well plate for ELISA fixed with monoclonal antibody 25-1 against Aβ. Incubation was carried out at 4° C. for 16-20 hours. The plate was washed with phosphate buffer (pH 7.4), followed by addition of biotinylated monoclonal antibody MA32-40 against Aβ, and the plate was allowed to stand at 4° C. for 2 hours. After the plate was washed with phosphate buffer again, streptavidin conjugated alkaline phosphatase was added. Biotin was allowed to conjugate with streptavidin, and then the plate was washed with phosphate buffer. Blue Phos (KPL Inc.) was added to the plate, and then after incubation for an appropriate period of time, absorbance was measured for each of the wells. The amount of Aβ contained in the supernatant of conditioned medium was obtained from a calibration curve which was prepared separately. The concentration at which production of Aβ is inhibited by 50% (EC50), when compared with the control cells without the addition of the compound, was calculated. Here, 25-1 antibody and MA32-40 antibody used in ELISA are mouse monoclonal antibodies derived from hybridoma cell clone cell lines, which specifically recognize each antigen which was prepared and selected in accordance with a standard method by using Aβ25-35 and Aβ1-8 as antigens, respectively.
Results for the evaluation made by the aforementioned assay with respect to compound (I) of the present invention are shown in Table 1. Notation of ++++ is provided when EC50 is 5 nM or lower, +++ when 5-50 nM, and ++ when 50-500 nM.

melting point | SMILES | EC50 [1]
201 to 203 °C | Cc1cc(C(N)=O)ncc1C(c1c(F)ccc(F)c1F)S(=O)(=O)CCCC(F)(F)F (stereo not drawn) | 
222 to 223 °C | Cc1cc(C(N)=O)ncc1C(c1c(F)ccc(F)c1F)S(=O)(=O)CC1CC1 (stereo not drawn) | 
194 to 196 °C | Cc1cc(C(N)=O)ncc1C(c1c(F)ccc(F)c1F)S(=O)(=O)CCCF (stereo not drawn) | 
205 to 207 °C | Cc1cc(C(N)=O)ncc1C(c1c(F)ccc(F)c1F)S(=O)(=O)CC1CC(F)(F)C1 (stereo not drawn) | 
161 to 161.5 °C | Cc1cc(C(=O)NCO)ncc1C(c1c(F)ccc(F)c1F)S(=O)(=O)CCC(C)(F)F (stereo not drawn) | 
146 to 147 °C | Cc1cc(C(=O)NCCO)ncc1C(c1c(F)ccc(F)c1F)S(=O)(=O)CCC(F)(F)F (stereo not drawn) | 
202 to 204 °C | CCCS(=O)(=O)C(c1cnc(C(N)=O)cc1C)c1c(F)ccc(F)c1F (stereo not drawn) | 
160 to 161 °C | Cc1cc(C(N)=O)ncc1C(c1c(F)ccc(F)c1F)S(=O)(=O)CC(F)(F)C(F)F (stereo not drawn) | 
126 to 128 °C | Cc1cc(C(=O)NCO)ncc1C(c1c(F)ccc(F)c1F)S(=O)(=O)CCC(F)(F)C(F)(F)F (stereo not drawn) | 
191.5 to 192 °C | Cc1cc(C(N)=O)ncc1C(c1c(F)ccc(F)c1F)S(=O)(=O)CCC(F)F (stereo not drawn) | 
97 to 98 °C | Cc1cc(C(N)=O)ncc1C(SCCC=C(F)F)c1c(F)ccc(F)c1F (stereo not drawn) | 
214 to 215 °C | Cc1cc(C(N)=O)ncc1C(c1c(F)ccc(F)c1F)S(=O)(=O)CC1CCC1 (stereo not drawn) | 
194 to 196 °C | Cc1cc(C(N)=O)ncc1C(c1c(F)ccc(F)c1F)S(=O)(=O)CC(C(F)(F)F)C(F)(F)F (stereo not drawn) | 
85 to 87 °C | Cc1cc(C(=O)O)ncc1C(c1c(F)ccc(F)c1F)S(=O)(=O)CCC(F)(F)F (stereo not drawn) | 
170 to 172 °C | Cc1cc(C(N)=O)ncc1C(c1c(F)ccc(F)c1F)S(=O)(=O)CCC(F)=C(F)F (stereo not drawn) | 
143 to 144 °C | Cc1cc(C(N)=O)ncc1C(c1c(F)ccc(F)c1F)S(=O)(=O)CCC(C)(C)C (stereo not drawn) | 
203 to 204 °C | Cc1cc(C(=O)N(C)C)ncc1C(c1c(F)ccc(F)c1F)S(=O)(=O)CCC(F)(F)F (stereo not drawn) | 
240 to 241 °C | Cc1cc(C(N)=O)ncc1C(c1c(F)ccc(F)c1F)S(=O)(=O)CC(C)C (stereo not drawn) | 

SMILES | melting point | EC50 [1]
Cc1cc(C(N)=O)ncc1C(c1c(F)ccc(F)c1F)S(=O)(=O)CC=C(F)F (stereo not drawn) [Example 37, 5-[[(3,3-Difluoroprop-2-en-1-yl)sulfonyl](2,3,6-trifluorophenyl)methyl]-4-methylpyridine-2-carboxamide] | 171 to 172 °C | 50 to 500 nM
Nc1cc(=O)n2cc(Cl)c(C(c3c(F)ccc(F)c3F)S(=O)(=O)CCC(F)(F)F)cc2n1 (stereo not drawn) [Example 51, 2-Amino-7-chloro-8-[(2,3,6-trifluorophenyl)[(3,3,3-trifluoropropyl)sulfonyl]methyl]-4H-pyrido[1,2-a]pyrimidin-4-one] | 247 °C (dec.) | ≤ 5 nM
Cc1cc(C(N)=O)ncc1C(c1c(F)ccc(F)c1F)S(=O)(=O)CCC(F)(F)Cl (stereo not drawn) [Example 34, 5-[[(3-Chloro-3,3-difluoropropyl)sulfonyl](2,3,6-trifluorophenyl)methyl]-4-methylpyridine-2-carboxamide] | 181 to 183 °C | 5 to 50 nM
O=c1[nH]nc2cc(C(c3c(F)ccc(F)c3F)S(=O)(=O)CCC(F)(F)F)c(Cl)cn12 (stereo not drawn) [Example 54, 6-Chloro-7-[(2,3,6-trifluorophenyl)[(3,3,3-trifluoropropyl)sulfonyl]methyl][1,2,4]triazolo[4,3-a]pyridin-3(2H)-one] | 209 to 211 °C | 5 to 50 nM
Cc1cc(C(N)=O)ncc1C(c1c(F)ccc(F)c1F)S(=O)(=O)CCCCl (stereo not drawn) [Example 30, 5-[[(3-Chloropropyl)sulfonyl](2,3,6-trifluorophenyl)methyl]-4-methylpyridine-2-carboxamide] | 197 to 199 °C | 50 to 500 nM
Nc1cc(C(c2c(F)ccc(F)c2F)S(=O)(=O)CCC(F)(F)F)c(Cl)cn1 (stereo not drawn) [Example 48, 5-Chloro-4-[(2,3,6-trifluorophenyl)[(3,3,3-trifluoropropyl)sulfonyl]methyl]pyridin-2-amine] | 155 to 159 °C | 5 to 50 nM
Cc1cc(C(=O)NCO)ncc1C(c1c(F)ccc(F)c1F)S(=O)(=O)CCC(F)(F)Cl (stereo not drawn) [Example 35, 5-[[(3-Chloro-3,3-difluoropropyl)sulfonyl](2,3,6-trifluorophenyl)methyl]-N-(hydroxymethyl)-4-methylpyridine-2-carboxamide] | 150 to 152 °C | 5 to 50 nM
Cc1cc(C(N)=O)ncc1C(c1c(F)ccc(F)c1F)S(=O)(=O)CCC(Cl)(Cl)Cl (stereo not drawn) [Example 18, 4-Methyl-5-[[(3,3,3-trichloropropyl)sulfonyl](2,3,6-trifluorophenyl)methyl]pyridine-2-carboxamide] | 173 to 175 °C | 50 to 500 nM
Cc1cc(C(=O)NCO)ncc1C(c1c(F)ccc(F)c1F)S(=O)(=O)CCC(F)(F)F (stereo not drawn) [Example 4, N-(Hydroxymethyl)-4-methyl-5-[(2,3,6-trifluorophenyl)[(3,3,3-trifluoropropyl)sulfonyl]methyl]pyridine-2-carboxamide] | 146 to 148 °C | 5 to 50 nM
Cc1cc(C(N)=O)ncc1C(c1c(F)ccc(F)c1F)S(=O)(=O)CCC(F)(F)F (stereo not drawn) [Example 3, 4-Methyl-5-[(2,3,6-trifluorophenyl)[(3,3,3-trifluoropropyl)sulfonyl]methyl]pyridine-2-carboxamide] | 190 to 191 °C | 50 to 500 nM
Cc1cc(C(N)=O)ncc1C(c1c(F)ccc(F)c1F)S(=O)(=O)CCC(C)(F)F (stereo not drawn) [Example 10, 5-[[(3,3-Difluorobutyl)sulfonyl](2,3,6-trifluorophenyl)methyl]-4-methylpyridine-2-carboxamide] | 165 to 166 °C | 50 to 500 nM
Cc1cc(C(N)=O)ncc1C(c1c(F)ccc(F)c1F)S(=O)(=O)CCC(F)(F)C(F)(F)F (stereo not drawn) [Example 19, 4-Methyl-5-[[(3,3,4,4,4-pentafluorobutyl)sulfonyl](2,3,6-trifluorophenyl)methyl]pyridine-2-carboxamide] | 155 to 156 °C | 5 to 50 nM
O=c1cc(O)nc2cc(C(c3c(F)ccc(F)c3F)S(=O)(=O)CCC(F)(F)F)c(Cl)cn12 (stereo not drawn) [Example 49, 7-Chloro-2-hydroxy-8-[(2,3,6-trifluorophenyl)[(3,3,3-trifluoropropyl)sulfonyl]methyl]-4H-pyrido[1,2-a]pyrimidin-4-one] | 264 °C (dec.) | 5 to 50 nM
CCCCS(=O)(=O)C(c1cnc(C(N)=O)cc1C)c1c(F)ccc(F)c1F (stereo not drawn) [Example 15, 5-[(Butylsulfonyl)(2,3,6-trifluorophyenyl)methyl]-4-methylpyridine-2-carboxamide] | 203 to 204 °C | 50 to 500 nM
NC(=O)c1cc(C(c2c(F)ccc(F)c2F)S(=O)(=O)CCC(F)(F)F)c(Cl)cn1 (stereo not drawn) [Example 45, 5-Chloro-4-[(2,3,6-trifluorophenyl)[(3,3,3-trifluoropropyl)sulfonyl]methyl]pyridine-2-carboxamide] | 237 to 239 °C | 50 to 500 nM
